Source: patent US20250195530A1, “POLQ INHIBITORS” (ASTRAZENECA AB, priority 2022, published 2025)
Where two headings read alike, the source gives them in different places.

Legend:
DLD-1 BRCA2−/− cells = experiment: Homologous recombination synthetic lethal inhibition of proliferation, DLD-1 BRCA2-/- (Cell Titre Glo 3D); format: cell-based; conditions: Homo sapiens, DLD-1, 288 h, 12 days
Method in brief: (§1)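 Cells are seeded in RPMI 1640 (phenol red free, 10% FBS, GlutaMAX) onto pre-dosed compound (10 μM to 0.51 nM, three-fold). Plates are incubated at 37 °C, and medium plus compound are refreshed on day 6. Viability is read by CellTiter-Glo 3D at day 7 (DLD-1) or day 12 (DLD-1 BRCA2−/−), and the IC50 is fitted.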

DLD-1 cells = experiment: Inhibition of proliferation, DLD-1 BRCA2 wt control (Cell Titre Glo 3D); format: cell-based; conditions: Homo sapiens, DLD-1, 168 h, 7 days
Method in brief: as §1

[1] = DLD-1 BRCA2−/− cells, read-out: POLQ PD Prolif Lumin BRCA2 −/− mean pIC50 (converted)
[2] = DLD-1 BRCA2 wt cells, read-out: POLQ PD Prolif Lumin DLD1 mean pIC50 (converted)

SMILES | IC50 (DLD-1 BRCA2−/− cells; DLD-1 BRCA2−/−, Cell Titre Glo 3D, read-out: POLQ PD Prolif Lumin BRCA2 −/− Mean pIC50 (converted)) [nM] | IC50 (DLD-1 cells; DLD-1 (BRCA2 wt control), Cell Titre Glo 3D, read-out: POLQ PD Prolif Lumin DLD1 Mean pIC50 (converted)) [nM] | IC50 (DLD-1 BRCA2−/− cells; [1]) [nM] | IC50 (DLD-1 cells; [2]) [nM]
COc1ccc(Cl)cc1Cn1c(-c2cccc(O[C@H]3C[C@@H](C(=O)O)C3)c2Cl)nc2c(OC3(C)CC3)ncnc21 [Example 52, (1s,3s)-3-(2-chloro-3-(9-(5-chloro-2-methoxybenzyl)-6-(1-methylcyclopropoxy)-9H-purin-8-yl)phenoxy)cyclobutane-1-carboxylic acid] | 12.6 | > 10000 | – | –
CC(=O)NCCCOc1ccc(-c2nc3cc(OC(C)C)ccc3n2Cc2ccccc2)c(Cl)c1 [Example A3, N-(3-(4-(1-benzyl-5-isopropoxy-1H-benzo[d]imidazol-2-yl)-3-chlorophenoxy)propyl)acetamide] | – | – | 501 | 5010
Cc1cc(OCCN2CCN(C)CC2)ncc1-c1nc2cc(OC(C)C)ccc2n1Cc1cccc(Cl)c1 [Example A7, 1-(3-chlorobenzyl)-5-isopropoxy-2-(4-methyl-6-(2-(4-methylpiperazin-1-yl)ethoxy)pyridin-3-yl)-1H-benzo[d]imidazole] | – | – | 251 | 1580
COc1ccc(-c2nc3cc(OC(C)C)ccc3n2Cc2ccccc2)c(Cl)c1 [Example A12, 1-benzyl-2-(2-chloro-4-methoxyphenyl)-5-isopropoxy-1H-benzo[d]imidazole] | – | – | 2000 | > 10000
CC(C)Oc1ncnc2c1nc(-c1ccc(OCCN3CCN(C)CC3)cc1)n2Cc1ccccc1 [Example B1, 9-benzyl-6-isopropoxy-8-(4-(2-(4-methyl-piperazin-1-yl)ethoxy)phenyl)-9H-purine] | – | – | 1000 | 7940
Cc1cc(OCCN2CCNCC2)ccc1-c1nc2c(OC(C)C)ncnc2n1Cc1ccccc1 [Example B2, 9-benzyl-6-isopropoxy-8-(2-methyl-4-(2-(piperazin-1-yl)ethoxy)phenyl)-9H-purine] | – | – | 501 | 6310
CC(=O)N1CCN(CCOc2ccc(-c3nc4c(OC(C)C)ncnc4n3Cc3ccccc3)c(C)c2)CC1 [Example B4, 1-(4-(2-(4-(9-benzyl-6-isopropoxy-9H-purin-8-yl)-3-methyl-phenoxy)ethyl)piperazin-1-yl)ethan-1-one] | – | – | 794 | > 10000
Cc1cc(OCCN2CCN(C)CC2)ccc1-c1nc2c(OC3(C)CC3)ncnc2n1Cc1ccccc1 [Example C1, 9-benzyl-8-(2-methyl-4-(2-(4-methylpiperazin-1-yl)ethoxy)phenyl)-6-(1-methylcyclopropoxy)-9H-purine] | – | – | 100 | 5010
CC(=O)N1CCN(c2cc(C)c(-c3nc4c(OC5(C)CC5)ncnc4n3Cc3ccccc3)cn2)CC1 [Example C2, 1-(4-(5-(9-benzyl-6-(1-methylcyclopropoxy)-9H-purin-8-yl)-4-methylpyridin-2-yl)piperazin-1-yl)ethan-1-one] | – | – | 316 | > 10000
Cc1cc(OCCN2CCN(C)CC2)ncc1-c1nc2c(OC3(C)CC3)ncnc2n1Cc1ccccc1 [Example C3, 9-benzyl-8-(4-methyl-6-(2-(4-methylpiperazin-1-yl)ethoxy)pyridin-3-yl)-6-(1-methylcyclopropoxy)-9H-purine] | – | – | 316 | 7940
CN(C)[C@@H]1CCN(c2ccc(-c3nc4c(OC5(C)CC5)ncnc4n3Cc3ccccc3)c(Cl)c2)C1 [Example C4, (R)-1-(4-(9-benzyl-6-(1-methylcyclopropoxy)-9H-purin-8-yl)-3-chlorophenyl)-N,N-dimethylpyrrolidin-3-amine] | – | – | 200 | 2510
Cc1cc(N2CCNCC2)ncc1-c1nc2c(OC3(C)CC3)ncnc2n1Cc1ccccc1 [Example C5, 9-benzyl-8-(4-methyl-6-(piperazin-1-yl)pyridin-3-yl)-6-(1-methylcyclopropoxy)-9H-purine] | – | – | 316 | > 10000
COc1cccc(-c2nc3c(OC4(C)CC4)ncnc3n2Cc2ccccc2)c1Cl [Example C6, 9-benzyl-8-(2-chloro-3-methoxyphenyl)-6-(1-methylcyclopropoxy)-9H-purine] | – | – | 79.4 | > 10000
CC1(Oc2ncnc3c2nc(-c2ccc(N4CCNCC4)cc2Cl)n3Cc2ccccc2)CC1 [Example C7, 9-benzyl-8-(2-chloro-4-(piperazin-1-yl)phenyl)-6-(1-methylcyclopropoxy)-9H-purine] | – | – | 251 | 6310
CC1(Oc2ncnc3c2nc(-c2ccc(OCC(=O)N4CCNCC4)cc2Cl)n3Cc2ccccc2)CC1 [Example C8, 2-(4-(9-benzyl-6-(1-methylcyclopropoxy)-9H-purin-8-yl)-3-chloro-phenoxy)-1-(piperazin-1-yl)ethan-1-one] | – | – | 316 | 6310
CN1CCN(C(=O)COc2ccc(-c3nc4c(OC5(C)CC5)ncnc4n3Cc3ccccc3)c(Cl)c2)CC1 [Example C9, 2-(4-(9-benzyl-6-(1-methylcyclopropoxy)-9H-purin-8-yl)-3-chloro-phenoxy)-1-(4-methyl-piperazin-1-yl)ethan-1-one] | – | – | 126 | > 10000

SMILES | IC50 (DLD-1 BRCA2−/− cells; DLD-1 BRCA2−/−, Cell Titre Glo 3D, read-out: POLQ PD Prolif Lumin BRCA2 −/− Mean pIC50 (converted)) [nM] | IC50 (DLD-1 cells; DLD-1 (BRCA2 wt control), Cell Titre Glo 3D, read-out: POLQ PD Prolif Lumin DLD1 Mean pIC50 (converted)) [nM] | IC50 (DLD-1 BRCA2−/− cells; [1]) [nM] | IC50 (DLD-1 cells; [2]) [nM]
CC(=O)N1CCC(COc2ccc(-c3nc4c(OC5(C)CC5)ncnc4n3Cc3ccccc3)c(Cl)c2)CC1 [Example D1, 1-(4-((4-(9-benzyl-6-(1-methylcyclopropoxy)-9H-purin-8-yl)-3-chlorophenoxy)methyl)piperidin-1-yl)ethan-1-one] | – | – | 79.4 | 6310
CC(=O)N1CCN(CCOc2ccc(-c3nc4c(OC5(C)CC5)ncnc4n3Cc3ccccc3)c(Cl)c2)CC1 [Example D5, 1-(4-(2-(4-(9-benzyl-6-(1-methylcyclopropoxy)-9H-purin-8-yl)-3-chlorophenoxy)ethyl)piperazin-1-yl)ethan-1-one] | – | – | 63.1 | 2510
CC1(Oc2ncnc3c2nc(-c2ccc(OCCCN)cc2Cl)n3Cc2ccccc2)CC1 [Example D6, 3-(4-(9-benzyl-6-(1-methylcyclopropoxy)-9H-purin-8-yl)-3-chlorophenoxy)propan-1-amine] | – | – | 631 | 5010
CC(=O)NCCCOc1ccc(-c2nc3c(OC4(C)CC4)ncnc3n2Cc2ccccc2)c(Cl)c1 [Example D7, N-(3-(4-(9-benzyl-6-(1-methylcyclopropoxy)-9H-purin-8-yl)-3-chlorophenoxy)propyl)acetamide] | – | – | 126 | 6310
CC(=O)N1CCN(CCOc2cccc(-c3nc4c(OC5(C)CC5)ncnc4n3Cc3ccccc3)c2Cl)CC1 [Example D8, 1-(4-(2-(3-(9-benzyl-6-(1-methylcyclopropoxy)-9H-purin-8-yl)-2-chlorophenoxy)ethyl)piperazin-1-yl)ethan-1-one] | – | – | 50.1 | 6310
CN1CCC(Oc2cccc(-c3nc4c(OC5(C)CC5)ncnc4n3Cc3ccccc3)c2Cl)CC1 [Example D9, 9-benzyl-8-(2-chloro-3-((1-methylpiperidin-4-yl)oxy)phenyl)-6-(1-methylcyclopropoxy)-9H-purine] | – | – | 158 | 2000
CC1(Oc2ncnc3c2nc(-c2cccc(OCCN4CCNCC4)c2Cl)n3Cc2ccccc2)CC1 [Example D10, 9-benzyl-8-(2-chloro-3-(2-(piperazin-1-yl)ethoxy)phenyl)-6-(1-methylcyclopropoxy)-9H-purine] | – | – | 126 | 5010
CC1(Oc2ncnc3c2nc(-c2cccc(OC4CCNCC4)c2Cl)n3Cc2ccccc2)CC1 [Example D11, 9-benzyl-8-(2-chloro-3-(piperidin-4-yloxy)phenyl)-6-(1-methylcyclopropoxy)-9H-purine] | – | – | 251 | 3160
CN1CCN(CCOc2cccc(-c3nc4c(OC5(C)CC5)ncnc4n3Cc3ccccc3)c2Cl)CC1 [Example D12, 9-benzyl-8-(2-chloro-3-(2-(4-methylpiperazin-1-yl)ethoxy)phenyl)-6-(1-methylcyclopropoxy)-9H-purine] | – | – | 50.1 | 5010
CC1(Oc2ncnc3c2nc(-c2ccc(OCCN4CCNC(=O)C4)cc2Cl)n3Cc2ccccc2)CC1 [Example D15, 4-(2-(4-(9-benzyl-6-(1-methylcyclopropoxy)-9H-purin-8-yl)-3-chlorophenoxy)ethyl)piperazin-2-one] | – | – | 79.4 | > 10000
CC1(Oc2ncnc3c2nc(-c2ccc(OC[C@H]4CCN4)cc2Cl)n3Cc2ccccc2)CC1 [Example D16, (R)-8-(4-(azetidin-2-ylmethoxy)-2-chlorophenyl)-9-benzyl-6-(1-methylcyclopropoxy)-9H-purine] | – | – | 158 | 3980
CC1(Oc2ncnc3c2nc(-c2ccc(O[C@H]4CCNC4)cc2Cl)n3Cc2ccccc2)CC1 [Example D17, (S)-9-benzyl-8-(2-chloro-4-(pyrrolidin-3-yloxy)phenyl)-6-(1-methylcyclopropoxy)-9H-purine] | – | – | 100 | 3160
CC1(Oc2ncnc3c2nc(-c2ccc(OCCCN4CCNCC4)cc2Cl)n3Cc2ccccc2)CC1 [Example D18, 9-benzyl-8-(2-chloro-4-(3-(piperazin-1-yl)propoxy)phenyl)-6-(1-methylcyclopropoxy)-9H-purine] | – | – | 126 | 3160
CC1(Oc2ncnc3c2nc(-c2ccc(OCC4(F)CNC4)cc2Cl)n3Cc2ccccc2)CC1 [Example D19, 9-benzyl-8-(2-chloro-4-((3-fluoroazetidin-3-yl)methoxy)phenyl)-6-(1-methylcyclopropoxy)-9H-purine] | – | – | 501 | 5010
CN(C)C(=O)COc1ccc(-c2nc3c(OC4(C)CC4)ncnc3n2Cc2ccccc2)c(Cl)c1 [Example D20, 2-(4-(9-benzyl-6-(1-methylcyclopropoxy)-9H-purin-8-yl)-3-chlorophenoxy)-N,N-dimethylacetamide] | – | – | 200 | > 10000
